Literature values in patent publication US9532968B1, “Fumarate compounds, pharmaceutical compositions thereof, and methods of use” (priority 2015, dated 2017).

For `COC(=O)/C=C/C(=O)OC` [DMF, dimethylfumarate], which aqueous solubility is on record?
The aqueous solubility was “poor”.
